Results from ChEMBL document CHEMBL1144852, “Optimization of a dihydropyrrolopyrazole series of transforming growth factor-beta type I receptor kinase domain inhibitors: discovery of an orally bioavailable transforming growth factor-beta receptor type I inhibitor as antitumor agent” (J Med Chem, 2008).

Tests used:
NIH3T3 = experiment: Antiproliferative activity against mouse NIH3T3 cells by [3H]thymidine assay; type: functional, cell-based
TGF-beta receptor type-1 = TGF-beta receptor type-1 (Homo sapiens, UniProt P36897, T204D); experiment: Inhibition of TGFbeta type receptor 1 ALK5 (T204D) expressed in Sf9 cells
[1] = Antiproliferative activity against mink Mv1Lu-p3TP-Lux cells by luciferase reporter assay; type: functional, cell-based, Neovison vison; conditions: Neogale vison
Caco-2 = experiment: Permeability from apical to basolateral side of human Caco-2 cell membrane; type: ADME, cell-based
Liver microsomes = experiment: Metabolic stability in human liver microsomes; type: ADME, Microsome; further: time not given here
[2] = Metabolic stability in rat microsomes; type: ADME, Microsome; further: time not given here
Mus musculus [3] = experiment: Inhibition of TGFbeta type receptor 1 in human Calu6 cells xenografted mouse at 50 mg/kg, po by single point IVTI assay; type: functional, Calu-6; parameters: scale not given: the % may be the effect or the level left
Mus musculus [4] = experiment: Inhibition of TGFbeta type receptor 1 in orally dosed human Calu6 cells xenografted mouse by IVTI […] assay; type: functional, organism-based; conditions: Calu-6

| IC50 (TGF-beta receptor type-1) | permeability (Caco-2) | Stability (Liver microsomes) | Stability [2] | SMILES | IC50 (NIH3T3) | IC50 [1] | Activity (Mus musculus [3]) | EC50 (Mus musculus [4]) |
| --- | --- | --- | --- | --- | --- | --- | --- | --- |
| 47 nM |  |  |  | CN(C)CCCCCOc1ccc2c(-c3c(-c4ccccn4)nn4c3CCC4)ccnc2c1 | 51 nM | 24 nM |  |  |
| 928 nM |  |  |  | Cc1cccc(-c2nn3c(c2-c2ccnc4c(F)cccc24)CCC3)n1 | 1030 nM | 951 nM |  |  |
| 1100 nM |  |  |  | CN(C)C(=O)c1ccc(Oc2ccc3c(-c4c(-c5ccccn5)nn5c4CCC5)ccnc3c2)cc1 | 5100 nM | 15000 nM |  |  |
|  | 76% | 22% | 98% | c1ccc(-c2n[nH]cc2-c2ccnc3ccccc23)nc1 | 81 nM |  |  |  |
| 33 nM | 54% | 99% | 99% | ClCCOc1ccc2c(-c3c(-c4ccccn4)nn4c3CCC4)ccnc2c1 | 97 nM | 66 nM |  |  |
| 89 nM |  |  |  | Cc1cccc(-c2nn3c(c2-c2ccnc4ccc(Br)cc24)CCC3)n1 | 338 nM | 55 nM |  |  |
| 130 nM | 42% | 55% | 97% | c1ccc(-c2nn3c(c2-c2ccnc4cc(OCC5CCCO5)ccc24)CCC3)nc1 (centres undefined) | 250 nM | 80 nM |  |  |

The next lines start with the molecule.

| SMILES | IC50 (TGF-beta receptor type-1) | permeability (Caco-2) | Stability (Liver microsomes) | Stability [2] | IC50 (NIH3T3) | IC50 [1] | Activity (Mus musculus [3]) | EC50 (Mus musculus [4]) |
| --- | --- | --- | --- | --- | --- | --- | --- | --- |
| Cc1cccc(-c2nn3c(c2-c2ccnc4ccc(OC(F)(F)F)cc24)CCC3)n1 | 141 nM |  |  |  | 254 nM | 201 nM |  |  |
| O=C(O)c1ccc(Oc2ccc3c(-c4c(-c5ccccn5)nn5c4CCC5)ccnc3c2)cc1 | 4800 nM |  |  |  | > 20000 nM | > 20000 nM |  |  |
| N#Cc1ccc(Oc2ccc3c(-c4c(-c5ccccn5)nn5c4CCC5)ccnc3c2)cc1 | 1200 nM |  |  |  |  |  |  |  |
| COc1cc(OC)c2nccc(-c3c(-c4cccc(C)n4)nn4c3CCC4)c2c1 | 3810 nM |  |  |  | > 20000 nM | 7200 nM |  |  |
| CN1CCN(CCOc2ccc3c(-c4c(-c5ccccn5)nn5c4CCC5)ccnc3c2)CC1 | 100 nM |  |  |  | 54 nM | 38 nM | 73% | 919 nM |
| COc1cc(-c2c(-c3ccccn3)nn3c2CCC3)c2ccccc2n1 | > 20000 nM |  |  |  |  |  |  |  |
